Assay results from BindingDB's records for patent US20240190872 (University of Illinois, 2024).

Target: T1, Enoyl-[acyl-carrier-protein] reductase [NADH] (UniProt A0A6F8TJQ1)
T1 sequence (A0A6F8TJQ1 whole entry): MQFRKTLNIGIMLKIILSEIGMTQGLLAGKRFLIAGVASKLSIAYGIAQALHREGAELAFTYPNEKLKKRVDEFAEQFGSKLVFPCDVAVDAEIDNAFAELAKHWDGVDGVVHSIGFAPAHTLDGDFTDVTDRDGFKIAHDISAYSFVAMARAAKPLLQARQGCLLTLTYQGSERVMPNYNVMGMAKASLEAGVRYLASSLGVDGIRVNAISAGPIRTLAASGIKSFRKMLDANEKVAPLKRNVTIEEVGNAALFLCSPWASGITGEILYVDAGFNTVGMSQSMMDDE
Experiment: standard FabI enzyme assay
Method: To probe the effects of varying ring systems and amine placement on FabI target engagement, the apparent inhibition constants (Kiapp) for select compounds were determined using purified FabI. The goal of these studies was two-fold, to comparatively assess fabimycin, Debio-1452-NH3, and Debio-1452, and to also assess differential activity against the E. coli and A. baumannii versions of FabI. FabI from E. coli and A. baumannii were recombinantly expressed and purified, and the ability for each compound to inhibit the activity of these enzymes was evaluated using a standard FabI enzyme assay.

## Cc1c(CN(C)C(=O)/C=C/c2cnc3c(c2)C[C@@H](N)C(=O)N3)oc2ccccc12 [US20240190872, Compound (+-)-Debio-1452-NH3]
  Ki: 114 nM
